Measured values: patent US5114919A, “Adjuncts in cancer chemotherapy” (Merck & Co., Inc., priority 1991, dated 1992)

What was measured:
[1] = tested on: KB-V-1 drug-resistant cell line; assay: [3H]vinblastine accumulation assay in KB-V-1 drug-resistant cells; assay type: cell-based, human; settings: for Accumulation of [3H]vinblastine, KB-V-1, drug preincubated (60 min): Table 2
Description: (§1) Radiolabelled compounds may also be utilized to determine the accumulation of antitumor chemotherapeutic agents in drug sensitive cells and in multidrug resistant cells. For example, the accumulation of [^3 H]vinblastine by drug sensitive cell lines and drug resistant cell lines in the presence or absence of a test compound may be determined. The relative accumulation of the radiolabelled chemotherapeutic agent is indicative of the ability of a compound to reverse multidrug resistance.
(§2) Drug Accumulation: Measurement of the accumulation of [^3 H] vinblastine in a KB-3 drug-sensitive cell line and a KB-V-1 drug-resistantcell line was performed at 37° C. in serum-free medium (DMEM). Cell monolayers were grown in 24 well dishes. [^3 H] vinblastine and different compounds (20 μM) were added to cells incubated for 30 minutes, monolayers were washed later, and drug accumulation per mg protein was assayed.

[2] = tested on: KB-3 drug-sensitive cell line; assay: [3H]vinblastine accumulation assay in KB-3 drug-sensitive cells; assay type: cell-based, human; settings: 37° C., serum-free DMEM; for Accumulation of [3H]vinblastine, KB-3: Table 1, compound 20 μM, 30 minutes; for Accumulation of [3H]vinblastine, KB-3, drug preincubated (60 min): Table 2, drug preincubated 60 min, compound 20 μM
Description: as §1, §2

[3] = compound 20 μM, 37° C., serum-free DMEM, drug-resistant cells
[4] = Table 1, compound 20 μM, 30 minutes, 37° C., serum-free DMEM, drug-resistant cells

Structure (SMILES)	Accumulation of [3H]vinblastine, KB-V-1 ([1]; 20 µM)	Accumulation of [3H]vinblastine, KB-V-1, drug preincubated (60 min) [1, 3]	Accumulation of [3H]vinblastine, KB-3 [2]	Accumulation of [3H]vinblastine, KB-3, drug preincubated (60 min) [2]	Accumulation of [3H]vinblastine, KB-V-1 [1, 4]
COc1cc(C(=O)NCc2ccc3c(c2)C(=C2CCN(C)CC2)c2ccccc2C=C3)cc(OC)c1OC [3,4,5-Trimethoxy-N-((5-(1-methyl-4-piperidinylidene)-5H-dibenzo[a,d]cyclohepten-3-yl)methyl)benzamide]	3.31 ± 0.25 pmole/mg protein	3.57 ± 0.16 pmole/mg protein	8.15 ± 0.44 pmole/mg protein	3.67 ± 0.32 pmole/mg protein	
COc1cc(N)c(Cl)cc1C(=O)NCc1ccc2c(c1)C(=C1CCN(C)CC1)c1ccccc1C=C2 [4-Amino-5-chloro-2-methoxy-N-((5-(1-methyl-4-piperidinylidene)-5H-dibenzo[a,d]cyclohepten-3-yl)methyl)benzamide]			3.47 ± 0.15 pmole/mg protein		3.47 ± 0.26 pmole/mg protein
Ic1ccc2c(c1)C(=C1CCN(CC3CC3)CC1)c1ccccc1C=C2 [(+)-1-cyclopropylmethyl-4-(3-iodo-5H-dibenzo[a,d]cyclohepten-5-ylidene)piperidine]			7.35 ± 0.18 pmole/mg protein		2.91 ± 0.25 pmole/mg protein
FC(F)(F)Sc1ccc2c(c1)C(=C1CCN(CC3CC3)CC1)c1ccccc1C=C2 [(-)-1-cyclopropylmethyl-4-(3-trifluoromethylthio-5H-dibenzo[a,d]cyclohepten-5-ylidene)piperidine]		1.85 ± 0.11 pmole/mg protein	11.65 ± 0.11 pmole/mg protein	10.16 ± 0.41 pmole/mg protein	0.91 ± 0.04 pmole/mg protein
CCOC(=O)C1=C(C)NC(C)=C(C(=O)OCC)C1c1ccc2c(c1)C(=C1CCN(C)CC1)c1ccccc1C=C2 [Diethyl 1,4-dihydro-2,6-dimethyl-4-(5-(1-methyl-4-piperidinylidene)-5H-dibenzo[a,d]cyclohepten-3-yl)pyridine dicarboxylate]			3.32 ± 0.09 pmole/mg protein		2.13 ± 0.15 pmole/mg protein
COc1ccc(CCN(C)CCCC(C#N)(c2ccc(OC)c(OC)c2)C(C)C)cc1OC (stereo not drawn) [Verapamil, reference compound]		2.36 ± 0.21 pmole/mg protein	4.65 ± 0.13 pmole/mg protein	4.71 ± 0.25 pmole/mg protein	2.21 ± 0.18 pmole/mg protein
